Measured values taken from the NIST ThermoML archive (doi:10.1016/j.fluid.2018.07.020).
Numbers after ± are expanded uncertainties.

Columns and labels:
[1] = Molar enthalpy of transition or fusion; conditions: DSC
[2] = for Normal melting temperature: Crystal 1, DTA; for Triple point temperature: Crystal 2, DSC

SMILES	Molar enthalpy of transition or fusion ([1]; Crystal 1) [kcal/mol]	Molar enthalpy of transition or fusion ([1]; Crystal 2) [kcal/mol]	Normal melting temperature [2] [°C]	Triple point temperature [2] [K]
CCCC[P+](CCCC)(CCCC)CCCS(=O)(=O)[O-] [3-(tributylphosphonio)propane-1-sulfonate]	2.32 ± 0.526	3.08 ± 0.526	160.02 ± 0.71	379.9 ± 0.94
CC[N+](CC)(CC)CCCS(=O)(=O)[O-] [3-(triethylammonio)propane-1-sulfonate]	3.66 ± 0.359	2.32 ± 0.335	172.88 ± 0.71	360.22 ± 0.94
CCCCCC[N+](CCCCCC)(CCCCCC)CCCS(=O)(=O)[O-] [3-(trihexylammonio)propane-1-sulfonate]	6.79 ± 0.645	–	206.74 ± 0.71	–
CCCC[P+](CCCC)(CCCC)CCCCS(=O)(=O)[O-] [4-(tributylphosphonio)butane-1-sulfonate]	4.71 ± 0.55	–	173.57 ± 0.71	–
CCCCCC[N+](CCCCCC)(CCCCCC)CCCCS(=O)(=O)[O-] [4-(trihexylammonio)butane-1-sulfonate]	4.31 ± 0.669	1.43 ± 0.669	199.60 ± 0.71	407.51 ± 0.94
O=S(=O)([O-])CCC[n+]1ccccc1 [[PyC3S]]	9.44 ± 0.335	–	273.89 ± 0.71	–
